In ChEMBL document CHEMBL5230113, “2-substituted benzothiazoles as antiproliferative agents: Novel insights on structure-activity relationships” (Eur J Med Chem, 2020):
In brackets after ≈: the same amount, converted by molar mass.

Assays:
[1] = system: NUGC-3; assay: Cytotoxicity against human NUGC-3 cells assessed as cell growth inhibition; assay type: functional
[2] = system: SK-HEP1; assay: Cytotoxicity against human SK-HEP1 cells assessed as cell growth inhibition; assay type: functional
[3] = system: MDA-MB-231; assay: Cytotoxicity against human MDA-MB-231 cells assessed as cell growth inhibition; assay type: functional, cell-based
[4] = Activation of procaspase-3 (unknown origin); parameters: species or system Homo sapiens
[5] = molecular target: Aryl hydrocarbon receptor (Homo sapiens, UniProt P35869); assay: Binding affinity to AhR (unknown origin)
Aryl hydrocarbon receptor, sequence (P35869 whole entry): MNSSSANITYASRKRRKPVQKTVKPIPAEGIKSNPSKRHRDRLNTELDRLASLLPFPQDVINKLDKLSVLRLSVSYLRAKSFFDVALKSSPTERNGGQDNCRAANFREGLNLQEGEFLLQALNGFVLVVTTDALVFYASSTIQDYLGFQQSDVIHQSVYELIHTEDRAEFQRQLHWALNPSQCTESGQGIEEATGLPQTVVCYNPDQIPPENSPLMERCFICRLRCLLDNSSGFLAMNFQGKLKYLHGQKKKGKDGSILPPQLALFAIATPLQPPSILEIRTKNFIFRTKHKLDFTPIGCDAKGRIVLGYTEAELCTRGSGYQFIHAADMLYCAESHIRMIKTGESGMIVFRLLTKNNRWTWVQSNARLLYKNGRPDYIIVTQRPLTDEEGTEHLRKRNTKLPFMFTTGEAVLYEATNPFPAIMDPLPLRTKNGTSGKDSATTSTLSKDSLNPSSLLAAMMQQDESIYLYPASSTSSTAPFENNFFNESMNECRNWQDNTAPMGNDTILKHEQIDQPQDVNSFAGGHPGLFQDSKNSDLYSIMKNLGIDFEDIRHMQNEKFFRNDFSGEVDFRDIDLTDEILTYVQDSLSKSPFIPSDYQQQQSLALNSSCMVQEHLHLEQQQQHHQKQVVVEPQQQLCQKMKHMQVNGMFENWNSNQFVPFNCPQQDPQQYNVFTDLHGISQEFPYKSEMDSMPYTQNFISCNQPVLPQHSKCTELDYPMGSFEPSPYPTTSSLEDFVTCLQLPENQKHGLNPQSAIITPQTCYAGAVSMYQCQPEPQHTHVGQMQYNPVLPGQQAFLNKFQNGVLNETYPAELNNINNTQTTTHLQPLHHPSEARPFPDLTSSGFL

[6] = system: HeLa; assay: Antiproliferative activity against human HeLa cells assessed as cell growth inhibition; assay type: functional, cell-based
[7] = system: A549; assay: Antiproliferative activity against human A549 cells assessed as cell growth inhibition; assay type: functional, cell-based
[8] = system: HepG2; assay: Cytotoxicity against human HepG2 cells assessed as inhibition of cell growth; assay type: functional, cell-based
[9] = molecular target: Tyrosine-protein kinase ABL1 (Mus musculus, UniProt P00520, T315I); assay: Inhibition of Abl T315I mutant in mouse BaF3 cells; assay type: cell-based
Tyrosine-protein kinase ABL1 (Mus musculus, UniProt P00520, T315I), sequence (P00520 whole entry T315I): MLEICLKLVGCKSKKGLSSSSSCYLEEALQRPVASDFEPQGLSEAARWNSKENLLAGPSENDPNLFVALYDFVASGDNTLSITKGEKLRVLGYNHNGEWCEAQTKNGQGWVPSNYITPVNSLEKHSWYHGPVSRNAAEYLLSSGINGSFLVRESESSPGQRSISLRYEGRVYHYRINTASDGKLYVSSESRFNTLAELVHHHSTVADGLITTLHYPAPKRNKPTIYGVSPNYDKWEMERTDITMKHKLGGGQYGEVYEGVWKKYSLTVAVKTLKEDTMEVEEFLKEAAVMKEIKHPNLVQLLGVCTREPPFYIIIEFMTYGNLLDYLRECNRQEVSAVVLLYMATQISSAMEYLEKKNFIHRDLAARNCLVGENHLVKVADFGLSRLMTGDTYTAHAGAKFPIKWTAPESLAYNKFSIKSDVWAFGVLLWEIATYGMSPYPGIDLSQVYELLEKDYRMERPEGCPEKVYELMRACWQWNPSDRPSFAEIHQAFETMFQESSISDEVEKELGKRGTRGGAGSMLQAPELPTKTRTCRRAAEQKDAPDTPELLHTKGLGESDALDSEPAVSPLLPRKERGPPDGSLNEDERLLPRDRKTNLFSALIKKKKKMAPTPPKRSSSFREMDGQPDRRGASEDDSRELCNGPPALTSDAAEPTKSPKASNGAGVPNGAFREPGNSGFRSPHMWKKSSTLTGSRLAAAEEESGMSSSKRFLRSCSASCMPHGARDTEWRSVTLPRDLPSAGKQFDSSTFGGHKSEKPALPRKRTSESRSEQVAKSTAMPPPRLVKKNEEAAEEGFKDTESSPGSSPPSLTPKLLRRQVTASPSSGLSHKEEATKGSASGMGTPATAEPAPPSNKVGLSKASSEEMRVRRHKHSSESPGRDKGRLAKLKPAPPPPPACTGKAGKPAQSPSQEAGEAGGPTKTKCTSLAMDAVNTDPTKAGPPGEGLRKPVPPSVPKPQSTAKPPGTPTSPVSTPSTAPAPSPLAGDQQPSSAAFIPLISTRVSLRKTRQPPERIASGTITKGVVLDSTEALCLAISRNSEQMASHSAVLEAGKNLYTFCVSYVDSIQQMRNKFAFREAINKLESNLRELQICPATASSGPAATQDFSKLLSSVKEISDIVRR

[10] = molecular target: Tyrosine-protein kinase ABL1 (Homo sapiens, UniProt P00519); assay: Inhibition of wild type Abl (unknown origin)
Tyrosine-protein kinase ABL1 (Homo sapiens, UniProt P00519), sequence (P00519 whole entry): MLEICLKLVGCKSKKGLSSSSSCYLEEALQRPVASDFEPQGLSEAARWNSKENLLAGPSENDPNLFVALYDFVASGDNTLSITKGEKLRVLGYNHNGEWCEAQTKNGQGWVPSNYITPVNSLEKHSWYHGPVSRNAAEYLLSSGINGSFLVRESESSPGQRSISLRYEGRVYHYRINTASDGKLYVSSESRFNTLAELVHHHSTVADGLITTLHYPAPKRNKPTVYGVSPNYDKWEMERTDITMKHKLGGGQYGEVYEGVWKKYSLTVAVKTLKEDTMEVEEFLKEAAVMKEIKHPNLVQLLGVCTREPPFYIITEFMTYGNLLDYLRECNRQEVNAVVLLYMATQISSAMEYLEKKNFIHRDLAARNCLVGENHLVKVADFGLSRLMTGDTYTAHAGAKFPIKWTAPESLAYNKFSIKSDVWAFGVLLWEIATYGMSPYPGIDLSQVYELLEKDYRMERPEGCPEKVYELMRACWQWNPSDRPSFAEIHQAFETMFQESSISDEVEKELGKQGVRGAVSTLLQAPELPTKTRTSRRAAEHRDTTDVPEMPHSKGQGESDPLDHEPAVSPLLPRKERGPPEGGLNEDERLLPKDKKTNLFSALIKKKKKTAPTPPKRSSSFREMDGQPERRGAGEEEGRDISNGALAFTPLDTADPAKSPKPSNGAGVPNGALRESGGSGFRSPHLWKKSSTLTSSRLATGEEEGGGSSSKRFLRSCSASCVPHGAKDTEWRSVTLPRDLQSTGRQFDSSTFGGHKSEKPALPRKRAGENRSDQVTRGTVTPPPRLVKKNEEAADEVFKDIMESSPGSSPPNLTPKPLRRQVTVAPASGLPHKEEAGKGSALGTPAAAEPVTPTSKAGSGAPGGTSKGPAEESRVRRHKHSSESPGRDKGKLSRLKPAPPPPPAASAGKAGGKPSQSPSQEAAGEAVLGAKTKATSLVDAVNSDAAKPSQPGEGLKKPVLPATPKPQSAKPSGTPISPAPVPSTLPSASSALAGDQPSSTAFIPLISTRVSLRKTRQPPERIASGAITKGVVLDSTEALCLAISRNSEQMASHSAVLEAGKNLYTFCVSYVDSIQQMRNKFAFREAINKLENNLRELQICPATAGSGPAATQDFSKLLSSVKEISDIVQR

[11] = molecular target: Tyrosine-protein kinase ABL1 (Mus musculus, UniProt P00520); assay: Inhibition of wild type Abl in mouse BaF3 cells; assay type: cell-based
Tyrosine-protein kinase ABL1 (Mus musculus, UniProt P00520), sequence (P00520 whole entry): as the sequence (P00520 whole entry T315I) above, with I315T counted along it

[12] = molecular target: T1, Prostaglandin G/H synthase 2 (Homo sapiens, UniProt P35354); assay: Inhibition of COX-2 (unknown origin)
T1 sequence (P35354 whole entry): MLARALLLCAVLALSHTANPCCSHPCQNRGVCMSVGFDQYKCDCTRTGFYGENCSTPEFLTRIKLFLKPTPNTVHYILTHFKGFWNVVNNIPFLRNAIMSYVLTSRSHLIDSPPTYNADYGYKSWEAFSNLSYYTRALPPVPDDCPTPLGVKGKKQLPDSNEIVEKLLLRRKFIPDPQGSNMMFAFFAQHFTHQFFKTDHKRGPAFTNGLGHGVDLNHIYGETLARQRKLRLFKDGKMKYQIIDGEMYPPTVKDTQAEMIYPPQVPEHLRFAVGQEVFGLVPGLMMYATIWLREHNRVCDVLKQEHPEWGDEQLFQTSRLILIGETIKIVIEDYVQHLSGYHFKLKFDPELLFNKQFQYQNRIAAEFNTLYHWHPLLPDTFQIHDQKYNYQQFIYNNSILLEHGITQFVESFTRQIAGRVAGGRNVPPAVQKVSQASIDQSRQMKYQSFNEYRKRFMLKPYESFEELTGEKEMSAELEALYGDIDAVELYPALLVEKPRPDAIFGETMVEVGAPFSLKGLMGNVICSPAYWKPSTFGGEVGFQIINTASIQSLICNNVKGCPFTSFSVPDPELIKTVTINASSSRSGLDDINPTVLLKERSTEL

[13] = system: MCF7; assay: Cytotoxicity against human MCF7 cells assessed as inhibition of cell growth; assay type: functional, cell-based
[14] = molecular target: Prostaglandin G/H synthase 1 (Homo sapiens, UniProt P23219); assay: Inhibition of COX-1 (unknown origin)
Prostaglandin G/H synthase 1, sequence (P23219 whole entry): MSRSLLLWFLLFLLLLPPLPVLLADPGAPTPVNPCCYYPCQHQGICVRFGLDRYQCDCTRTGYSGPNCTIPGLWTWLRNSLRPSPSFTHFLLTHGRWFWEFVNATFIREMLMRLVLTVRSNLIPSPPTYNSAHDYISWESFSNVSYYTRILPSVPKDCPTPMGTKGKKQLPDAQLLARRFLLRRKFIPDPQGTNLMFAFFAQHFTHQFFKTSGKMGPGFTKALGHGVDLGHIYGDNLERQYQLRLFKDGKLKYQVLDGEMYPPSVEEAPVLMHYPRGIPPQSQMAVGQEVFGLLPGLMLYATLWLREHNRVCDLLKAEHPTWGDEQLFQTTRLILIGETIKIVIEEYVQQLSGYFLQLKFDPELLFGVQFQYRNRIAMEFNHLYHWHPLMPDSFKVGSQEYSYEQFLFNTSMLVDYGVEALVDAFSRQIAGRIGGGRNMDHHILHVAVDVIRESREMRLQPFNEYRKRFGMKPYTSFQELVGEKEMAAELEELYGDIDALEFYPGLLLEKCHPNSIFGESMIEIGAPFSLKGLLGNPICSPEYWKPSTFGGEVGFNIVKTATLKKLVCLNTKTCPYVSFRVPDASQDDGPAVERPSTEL

[15] = system: DU-145; assay: Cytotoxicity against human DU-145 cells assessed as cell growth inhibition; assay type: functional
[16] = system: SMMC-7721; assay: Cytotoxicity against human SMMC-7721 cells assessed as cell growth inhibition; assay type: functional, cell-based
[17] = Cytotoxicity against human HCC4018 cells assessed as cell growth inhibition; assay type: functional, cell-based
[18] = system: HCC4017; assay: Cytotoxicity against human HCC4017 cells assessed as cell growth inhibition; assay type: functional, cell-based
[19] = molecular target: Histone deacetylase 1 (Homo sapiens, UniProt Q13547); assay: Inhibition of HDAC1 (unknown origin)
[20] = system: C6; assay: Cytotoxicity against rat C6 cells assessed as inhibition of cell growth; assay type: functional, cell-based
[21] = molecular target: Carbonic anhydrase 9 (Homo sapiens, UniProt Q16790); assay: Inhibition of CA9 (unknown origin)
[22] = system: DB; assay: Antiproliferative activity against human DB cells assessed as cell growth inhibition; assay type: functional, cell-based
[23] = system: MV4-11; assay: Antiproliferative activity against human MV4-11 cells assessed as cell growth inhibition; assay type: functional, cell-based
[24] = molecular target: Tubulin; assay: Inhibition of tubulin polymerization (unknown origin); assay type: protein-complex assay, Homo sapiens
[25] = system: MKN-45; assay: Antiproliferative activity against human MKN-45 cells assessed as inhibition of cell growth; assay type: functional, cell-based
[26] = system: NCI-H226; assay: Antiproliferative activity against human NCI-H226 cells assessed as inhibition of cell growth; assay type: functional, cell-based
[27] = system: HT-29; assay: Antiproliferative activity against human HT-29 cells assessed as inhibition of cell growth; assay type: functional, cell-based
[28] = system: MDA-MB-231; assay: Potency index, ratio of PAC-1 IC50 to test compound IC50 for antiproliferative activity against human MDA-MB-231 cells assessed as inhibition of cell growth; assay type: functional; conditions: pooled result: one value given for 5 cell lines, strains, targets or settings
[29] = system: SK-N-SH; assay: Antiproliferative activity against human SK-N-SH cells assessed as inhibition of cell growth; assay type: functional, cell-based
[30] = system: SW-620; assay: Cytotoxicity against human SW620 cells assessed as inhibition of cell growth; assay type: functional, cell-based
[31] = Cytotoxicity against human SPCA1 cells assessed as inhibition of cell growth; assay type: functional, cell-based
[32] = system: PC-3; assay: Cytotoxicity against human PC-3 cells assessed as inhibition of cell growth; assay type: functional, cell-based
[33] = system: HCT-116; assay: Cytotoxicity against human HCT-116 cells assessed as inhibition of cell growth; assay type: functional, cell-based
[34] = molecular target: Angiopoietin-1 receptor (Homo sapiens, UniProt Q02763); assay: Inhibition of Tie2 (unknown origin)
Angiopoietin-1 receptor, sequence (Q02763 whole entry): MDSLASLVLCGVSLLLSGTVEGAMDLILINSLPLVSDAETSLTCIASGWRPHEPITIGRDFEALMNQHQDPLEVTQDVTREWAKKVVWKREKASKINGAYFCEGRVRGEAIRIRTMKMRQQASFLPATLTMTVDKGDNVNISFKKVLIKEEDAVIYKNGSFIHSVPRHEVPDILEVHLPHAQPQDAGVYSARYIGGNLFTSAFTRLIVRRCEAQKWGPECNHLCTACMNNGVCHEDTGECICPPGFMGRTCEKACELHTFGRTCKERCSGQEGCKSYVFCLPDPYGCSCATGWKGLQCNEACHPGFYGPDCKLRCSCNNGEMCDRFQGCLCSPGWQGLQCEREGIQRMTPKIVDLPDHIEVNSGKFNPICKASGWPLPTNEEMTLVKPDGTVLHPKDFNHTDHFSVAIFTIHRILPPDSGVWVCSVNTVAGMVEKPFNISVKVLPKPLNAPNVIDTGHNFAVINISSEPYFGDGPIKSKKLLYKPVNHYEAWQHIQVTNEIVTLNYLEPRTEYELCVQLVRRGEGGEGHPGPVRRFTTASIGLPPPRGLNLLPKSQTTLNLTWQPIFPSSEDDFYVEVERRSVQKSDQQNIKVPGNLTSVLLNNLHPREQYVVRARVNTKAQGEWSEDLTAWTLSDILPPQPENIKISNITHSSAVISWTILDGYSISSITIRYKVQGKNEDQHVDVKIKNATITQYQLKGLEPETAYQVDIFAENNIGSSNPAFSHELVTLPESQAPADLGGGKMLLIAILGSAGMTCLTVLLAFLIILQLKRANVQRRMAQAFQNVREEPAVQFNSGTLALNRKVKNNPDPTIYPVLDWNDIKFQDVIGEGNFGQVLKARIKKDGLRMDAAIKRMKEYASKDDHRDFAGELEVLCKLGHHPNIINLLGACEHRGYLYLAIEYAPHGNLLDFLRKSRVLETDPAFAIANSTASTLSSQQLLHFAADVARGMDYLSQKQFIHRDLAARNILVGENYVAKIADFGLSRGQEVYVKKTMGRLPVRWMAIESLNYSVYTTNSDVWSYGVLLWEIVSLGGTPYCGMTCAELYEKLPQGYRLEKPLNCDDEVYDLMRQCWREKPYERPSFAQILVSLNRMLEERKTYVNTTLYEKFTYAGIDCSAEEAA

[35] = system: K562; assay: Cytotoxicity against human K562 cells; assay type: functional
[36] = system: KM12; assay: Cytotoxicity against human KM12 cells assessed as cell growth inhibition; assay type: functional
[37] = system: SiHa; assay: Antiproliferative activity against human SiHa cells assessed as cell growth inhibition; assay type: functional, cell-based
[38] = Homo sapiens, HepG2, read-out: IC50

O=C(Nc1nc2ccc([N+](=O)[O-])cc2s1)c1ccc(C(F)(F)F)cc1
GI50 [1]: 860 nM
GI50 [2]: 860 nM
GI50 [3]: 860 nM

C=CCc1cccc(/C=N/NC(=O)CN2CCN(Cc3ccccc3)CC2)c1O [PAC-1]
EC50 [4]: 410 nM

Cc1cc(C)c2sc(NC(=O)c3ccc(C#N)cc3)nc2c1
GI50 [1]: 290 nM
GI50 [2]: 290 nM
GI50 [3]: 290 nM

COc1ccc(-c2nc3cc(F)ccc3s2)cc1OC
IC50 [5]: 25 nM

COc1cccc(-n2cc(CNc3ccc(-c4nc5ccccc5s4)cc3)nn2)c1
GI50 [6]: 200 nM
GI50 [3]: 200 nM
GI50 [7]: 200 nM

Cc1nc(SCC(=O)Nc2nc3ccc(Cl)cc3s2)n(Nc2ccc([N+](=O)[O-])cc2)c1C
IC50 ([8]; hepg2): > 500 mg/L

Cc1cc(C)c2sc(NC(=O)c3ccc([N+](=O)[O-])cc3)nc2c1
GI50 [1]: 290 nM
GI50 [2]: 290 nM
GI50 [3]: 290 nM

CCNC(=O)Nc1nc2ccc(-c3ccccc3OC)cc2s1
IC50 [9]: 2140 nM
IC50 [10]: 0.06 nM
IC50 [11]: 3570 nM

CC1=NNC(=O)/C1=N/Nc1cccc(-c2nc3ccccc3s2)c1
IC50 [12]: 100 nM
IC50 [13]: > 25000 nM
IC50 [14]: 9560 nM
IC50 [7]: > 25000 nM

O=C(CNS(=O)(=O)c1ccc(Cl)cc1)N1CCN(c2nc3ccccc3s2)CC1
CC50 [15]: 8000 nM

Cc1ccc(N2CCN(CC(=O)Nc3ccc(-c4nc5ccccc5s4)cc3)CC2)cc1
GI50 [6]: 200 nM
GI50 [3]: 200 nM
GI50 [7]: 200 nM

CN1CCN(CC(=O)Nc2ccc(-c3nc4ccccc4s3)cc2)CC1
IC50 [13]: 10 nM
IC50 [3]: 8 nM

Cc1ccc2nc(N/N=C/c3cccnc3Nc3ccc(Cl)cc3)sc2c1
IC50 [13]: 1030 nM

N=C(N)N/N=C/c1cn(-c2nc3ccc(Oc4ccc(F)cc4)cc3s2)nc1-c1ccccc1
IC50 [16]: 2310 nM
IC50 [13]: 2230 nM
IC50 [3]: 2410 nM
IC50 [8, 38]: 3750 nM

Cc1ccc2nc(N/N=C/c3cccnc3Nc3ccccc3)sc2c1
IC50 [13]: 1690 nM

O=C(NO)c1ccc(S(=O)(=O)N2CCN(c3nc4ccccc4s3)CC2)cc1
IC50 [17]: 4000 nM
IC50 [18]: 1630 nM
IC50 [19]: 4800 nM

Cc1ccc(Nn2c(SCC(=O)Nc3nc4ccc(F)cc4s3)nc(C)c2C)cc1
IC50 [20]: 16.3 mg/L (≈ 37 µM)
IC50 ([8]; hepg2): 31.7 mg/L

Cc1nc(SCC(=O)Nc2nc3ccccc3s2)n(Nc2ccc([N+](=O)[O-])cc2)c1C
IC50 [20]: 24.3 mg/L (≈ 53.5 µM)
IC50 ([8]; hepg2): 28.7 mg/L

Cc1ccc(Nn2c(SCC(=O)Nc3nc4ccc(C)cc4s3)nc(C)c2C)cc1
IC50 ([8]; hepg2): 26.3 mg/L

CCCC(Sc1nc2cc(Cl)ccc2s1)C(=O)NS(=O)(=O)c1ccc(OC)cc1 (stereo unspecified)
IC50 [21]: 490 nM

O=C(CN1CCN(c2ccccc2)CC1)Nc1ccc(-c2nc3ccccc3s2)cc1
GI50 [6]: 200 nM
GI50 [3]: 200 nM
GI50 [7]: 200 nM

COc1ccccc1-c1ccc2nc(NC(=O)NCCN3CCN(C)CC3)sc2c1
IC50 [9]: 78 nM
IC50 [11]: 46 nM

O=C(CN1CCOCC1)Nc1ccc(-c2nc3ccccc3s2)cc1
IC50 [13]: 10 nM
IC50 [3]: 8 nM

O=C(CN1CCN(c2ccccc2F)CC1)Nc1ccc(-c2nc3ccccc3s2)cc1
GI50 [6]: 200 nM
GI50 [3]: 200 nM
GI50 [7]: 200 nM

CC(=O)N1N=C(C)/C(=N\Nc2cccc(-c3nc4ccccc4s3)c2)C1=O
IC50 [12]: 100 nM
IC50 [13]: 12300 nM
IC50 [14]: 9560 nM
IC50 [7]: 12300 nM

O=C(Nc1cccc(-c2nc3ccccc3s2)c1)c1cccnc1
IC50 [6]: 15000 nM
IC50 [22]: 15000 nM
IC50 [23]: 7510 nM
IC50 [13]: 15000 nM
IC50 [8, 38]: 15000 nM
IC50 [7]: 5420 nM

COc1ccccc1-c1ccc2nc(NC(=O)NCCO)sc2c1
IC50 [9]: 140 nM
IC50 [11]: 89 nM

COc1ccc(CN(C(=O)CSc2nc3ccccc3s2)c2cc(OC)c(OC)c(OC)c2)cc1O
IC50 [24]: 1900 nM

Clc1cccc(-n2cc(CNc3ccc(-c4nc5ccccc5s4)cc3)nn2)c1
GI50 [6]: 200 nM
GI50 [3]: 200 nM
GI50 [7]: 200 nM

CN(C)Cc1ccc2nc(NC(=O)N/N=C/c3ccc(OCc4ccc(C(F)(F)F)cc4)cc3O)sc2c1
IC50 [25]: 240 nM
IC50 [26]: 240 nM
EC50 [4]: 310 nM
IC50 [27]: 240 nM
IC50 [3]: 240 nM
Ratio IC50 [28]: 4.24
IC50 [29]: 240 nM

O=C(CSc1nc2ccc(NC(=O)CCl)cc2s1)NCc1ccccc1
IC50 [6]: 5130 nM
IC50 [30]: 5120 nM
IC50 [31]: 3890 nM
IC50 [32]: 6580 nM

Cc1ccc2nc(NC(=O)CSc3nc(C)c(C)n3Nc3ccc([N+](=O)[O-])cc3)sc2c1
IC50 [20]: 15.7 mg/L (≈ 33.4 µM)

CC1=NN(c2ccccc2)C(=O)/C1=N/Nc1cccc(-c2nc3ccccc3s2)c1
IC50 [12]: 100 nM
IC50 [13]: 12300 nM
IC50 [14]: 9560 nM
IC50 [7]: 12300 nM

Nc1ccc2sc(NC(=O)c3sc4ccccc4c3Cl)nc2c1
IC50 [13]: 40 nM
IC50 [33]: 4000 nM

O=C(CN1CCCCC1)Nc1ccc(-c2nc3ccccc3s2)cc1
IC50 [13]: 10 nM
IC50 [3]: 8 nM

COc1cccc2sc(NC(=O)c3ccc(C)cc3)nc12
GI50 [1]: 860 nM
GI50 [2]: 860 nM
GI50 [3]: 860 nM

COc1ccc2nc(NC(=O)CSc3nc(C)c(C)n3Nc3ccc([N+](=O)[O-])cc3)sc2c1
IC50 [20]: > 500 mg/L
IC50 ([8]; hepg2): > 500 mg/L

CCN1CCN(Cc2ccc(NC(=O)Nc3nc4ccc(Oc5ccnc(C(=O)NC)c5)cc4s3)cc2C(F)(F)F)CC1
IC50 [34]: 0.82 nM
GI50 [35]: 51.4 nM
GI50 [36]: 19 nM

COc1ccc(Cl)cc1C(=O)Nc1ccc(-c2nc3ccccc3s2)cc1
IC50 [37]: 6130 nM

Nc1ccc(-c2nc3ccccc3s2)cc1
IC50 [13]: 0.3 nM

Cc1ccc(Nn2c(SCC(=O)Nc3nc4ccc(Cl)cc4s3)nc(C)c2C)cc1
IC50 ([8]; hepg2): 29.3 mg/L

O=C(CNS(=O)(=O)c1cc(Cl)ccc1Cl)N1CCN(c2nc3ccccc3s2)CC1
CC50 [15]: 9000 nM
CC50 ([8]; Homo sapiens, HepG2): 8000 nM

Cc1cc(C)c2sc(NC(=O)c3ccc(C(F)(F)F)cc3)nc2c1
GI50 [1]: 290 nM
GI50 [2]: 290 nM
GI50 [3]: 290 nM

Cc1nc(SCC(=O)Nc2nc3ccc(F)cc3s2)n(Nc2ccc([N+](=O)[O-])cc2)c1C
IC50 ([8]; hepg2): > 500 mg/L
